# Test results as given in US9995734B2, “Human T cell line assay for evaluating the immunologic identity of glatiramer acetate preparations” (Mylan Inc., priority 2013, dated 2018).
# Marks after values point to notes of the source that are not given here.
# Tested on: Donor 3 GMA T-Cell Lines
# Test: ATP proliferation assay (CellTiter Glo), Donor 3 GMA T-cell lines, incl. reactivity to non-canonical GA peptides
# Assay type: cell-based, human
substance,measurement,setting,value
glatiramer acetate [COP],"Mean, ATP proliferation assay","T-cell line 165-C4G, 3 μg/mL, Day 40",3959
same,"Mean, ATP proliferation assay","T-cell line 165-C4G, line COP 10 μg/mL, footnote: well contained 3 μg/mL COP, Day 40",3717*
same,"Mean, ATP proliferation assay","T-cell line 165-C5G, 1 μg/mL, Day 40",12667
same,"Mean, ATP proliferation assay","T-cell line 165-C5G, 3 μg/mL, Day 40",24835
same,"Mean, ATP proliferation assay","T-cell line 165-C5G, 10 μg/mL, Day 40",47537
same,"Mean, ATP proliferation assay","T-cell line 165-C8G, 1 μg/mL, tested with the Donor 3 COP lines of Table 25",400 RLU
same,"Mean, ATP proliferation assay","T-cell line 165-C8G, 3 μg/mL, tested with the Donor 3 COP lines of Table 25",4821 RLU
same,"Mean, ATP proliferation assay","T-cell line 165-C8G, 10 μg/mL, tested with the Donor 3 COP lines of Table 25",22961 RLU
same,"Mean, ATP proliferation assay","T-cell line 165-D8G, 1 μg/mL, Day 40",8088
same,"Mean, ATP proliferation assay","T-cell line 165-D8G, 3 μg/mL, Day 40",8722
same,"Mean, ATP proliferation assay","T-cell line 165-D8G, 10 μg/mL, Day 40",28872
same,"Proliferation (luminescent ATP assay), Mean","T-cell line 165-E7G, 1 μg/mL antigen, Day 81 of culturing, No Antigen Value 2145",4217 RLU
same,"Mean, ATP proliferation assay","T-cell line 165-E7G, 1 μg/mL, Day 40",3794
same,"Proliferation (luminescent ATP assay), Mean","T-cell line 165-E7G, 3 μg/mL antigen, Day 81 of culturing, No Antigen Value 2145",5366 RLU
same,"Mean, ATP proliferation assay","T-cell line 165-E7G, 3 μg/mL, Day 40",4147
same,"Proliferation (luminescent ATP assay), Mean","T-cell line 165-E7G, 10 μg/mL antigen, Day 81 of culturing, No Antigen Value 2145",7619 RLU
same,"Mean, ATP proliferation assay","T-cell line 165-E7G, 10 μg/mL, Day 40",12565
same,"Proliferation (luminescent ATP assay), Mean","T-cell line 165-E7G, 30 μg/mL antigen, Day 81 of culturing, No Antigen Value 2145",7161 RLU
same,"Proliferation (luminescent ATP assay), Mean","T-cell line 165-E9G, 1 μg/mL antigen, Day 50 of culturing, No Antigen Value 1742",1999 RLU
same,"Mean, ATP proliferation assay","T-cell line 165-E9G, 1 μg/mL, Day 40",3216
same,"Proliferation (luminescent ATP assay), Mean","T-cell line 165-E9G, 3 μg/mL antigen, Day 50 of culturing, No Antigen Value 1742",5538 RLU
same,"Mean, ATP proliferation assay","T-cell line 165-E9G, 3 μg/mL, Day 40",5584
same,"Mean, ATP proliferation assay","T-cell line 165-E9G, 10 μg/mL, Day 40",25454
same,"Proliferation (luminescent ATP assay), Mean","T-cell line 165-E9G, 30 μg/mL antigen, Day 50 of culturing, No Antigen Value 1742",38286 RLU
same,"Proliferation (luminescent ATP assay), Mean","T-cell line 165-E9G, 10 μpg/mL antigen, Day 50 of culturing, No Antigen Value 1742",38813 RLU
same,"Mean, ATP proliferation assay","T-cell line 165-F2G, 1 μg/mL, Day 40",1700
same,"Mean, ATP proliferation assay","T-cell line 165-F2G, 3 μg/mL, Day 40",1332
same,"Mean, ATP proliferation assay","T-cell line 165-F2G, 10 μg/mL, Day 40",1554
same,"Mean, ATP proliferation assay","T-cell line 165-F5G, 1 μg/mL, Day 40",4332
same,"Mean, ATP proliferation assay","T-cell line 165-F5G, 3 μg/mL, Day 40",6099
same,"Mean, ATP proliferation assay","T-cell line 165-F5G, 10 μg/mL, Day 40",19498
same,"Mean, ATP proliferation assay","T-cell line 165-F8G, 1 μg/mL, Day 40",3690
same,"Mean, ATP proliferation assay","T-cell line 165-F8G, 3 μg/mL, Day 40",3184
same,"Mean, ATP proliferation assay","T-cell line 165-F8G, 10 μg/mL, Day 40",10663
same,"Proliferation (luminescent ATP assay), Mean","T-cell line 165-F10G, 1 μg/mL antigen, Day 50 of culturing, No Antigen Value 3752",6350 RLU
same,"Mean, ATP proliferation assay","T-cell line 165-F10G, 1 μg/mL, Day 40",8427
same,"Proliferation (luminescent ATP assay), Mean","T-cell line 165-F10G, 3 μg/mL antigen, Day 50 of culturing, No Antigen Value 3752",40495 RLU
same,"Proliferation (luminescent ATP assay), Mean","T-cell line 165-F10G, 10 μg/mL antigen, Day 50 of culturing, No Antigen Value 3752",58726 RLU
same,"Mean, ATP proliferation assay","T-cell line 165-F10G, 10 μg/mL, Day 40",29986
same,"Proliferation (luminescent ATP assay), Mean","T-cell line 165-F10G, 30 μg/mL antigen, Day 50 of culturing, No Antigen Value 3752",60488 RLU
same,"Mean, ATP proliferation assay","T-cell line 165-F10G, line COP 3 μg/mL, footnote: well contained 10 μg/mL COP, Day 40",31303**
same,"Proliferation (luminescent ATP assay), Mean","T-cell line 165-H11G, 1 μg/mL antigen, Day 50 of culturing, No Antigen Value 1485",8610 RLU
same,"Mean, ATP proliferation assay","T-cell line 165-H11G, 1 μg/mL, Day 40",9102
same,"Proliferation (luminescent ATP assay), Mean","T-cell line 165-H11G, 3 μg/mL antigen, Day 50 of culturing, No Antigen Value 1485",37551 RLU
same,"Mean, ATP proliferation assay","T-cell line 165-H11G, 3 μg/mL, Day 40",15637
same,"Proliferation (luminescent ATP assay), Mean","T-cell line 165-H11G, 10 μg/mL antigen, Day 50 of culturing, No Antigen Value 1485",50044 RLU
same,"Mean, ATP proliferation assay","T-cell line 165-H11G, 10 μg/mL, Day 40",43786
same,"Proliferation (luminescent ATP assay), Mean","T-cell line 165-H11G, 30 μg/mL antigen, Day 50 of culturing, No Antigen Value 1485",32898 RLU
same,responsiveness in proliferation assay,"all 8 Donor 3 GMA cell lines tested, Day 32, 10 μg/mL (Table 19)",responsive
same,responsiveness in proliferation assay,"eleven of the 12 cell lines (all but F2G), Day 40, 1, 3 or 10 μg/mL (Table 21)",responsive
